Reference: ChEMBL document CHEMBL1131553, “Orally active indole N-oxide PDE4 inhibitors” (Bioorg Med Chem Lett, 1998)

What was measured:
Mus musculus [1] = assay: In vivo inhibition of LPS induced tumor necrosis factor (TNF-alpha) in mice at 50 mg/kg; assay type: functional
Phosphodiesterase 4 [2] = molecular target: T1, Phosphodiesterase 4 (Homo sapiens, UniProt P27815+Q08499+Q07343+Q08493); assay type: protein assay
Phosphodiesterase 4 [3] = molecular target: T1, Phosphodiesterase 4; assay: Inhibition of phosphodiesterase type IV (PDE4) activity; assay type: protein assay
Mus musculus [4] = assay: In vivo inhibition of LPS induced tumor necrosis factor (TNF-alpha) in mice at 10 mg/kg; assay type: functional
Mus musculus [5] = assay: In vivo inhibition of LPS induced tumor necrosis factor (TNF-alpha) in mice; assay type: functional
Canis familiaris [6] = assay: Emetic effect in dogs on intravenous dose (3/4); assay type: functional; conditions: Canis lupus familiaris
Canis familiaris [7] = assay: Emetic effect in dogs on intravenous dose (0/4); assay type: functional; conditions: Canis lupus familiaris
[8] = Time taken to reach maximum concentration in plasma upon oral administration in mouse; assay type: ADME, organism-based
[9] = Half-life by oral administration in mouse; assay type: ADME, organism-based; conditions: in vivo
[10] = Area under curve by ioral administration in mouse; assay type: ADME, organism-based; conditions: in vivo, po
[11] = Plasma clearance value upon iv administration in mouse; assay type: ADME, organism-based
[12] = Area under curve by iv administration in mouse; assay type: ADME, organism-based; conditions: in vivo
[13] = Oral bioavailability in mouse; assay type: ADME, organism-based; conditions: in vivo
[14] = Maximum concentration in plasma upon oral administration in mouse; assay type: ADME, organism-based; conditions: read-out: Cp max
[15] = Half-life by iv administration in mouse; assay type: ADME, organism-based; conditions: in vivo
[16] = Value distribution upon iv administration in mouse; assay type: ADME, organism-based; conditions: in vivo, read-out: Vdss
Rattus norvegicus [17] = assay: Percentage change in body weight of rats in streptococcal cell wall-washed arthritis model at 10.0 mg/kg peroral dose; assay type: functional; conditions: route oral
Rattus norvegicus [18] = assay: Streptococcal cell wall-washed arthritis model in rats at 3.0 mg/kg peroral dose; assay type: functional; conditions: route oral
Rattus norvegicus [19] = assay: Inhibition of streptococcal cell wall-washed arthritis model in rats at 10.0 mg/kg peroral dose; assay type: functional; conditions: route oral
Rattus norvegicus [20] = assay: Streptococcal cell wall-washed arthritis model in rats at 30.0 mg/kg peroral dose; assay type: functional; conditions: route oral
Rattus norvegicus [21] = assay: Inhibition of streptococcal cell wall-washed arthritis model in rats at 30.0 mg/kg peroral dose; assay type: functional; conditions: route oral
Rattus norvegicus [22] = assay: Percentage change in body weight of rats in streptococcal cell wall-washed arthritis model at 30.0 mg/kg peroral dose; assay type: functional; conditions: route oral
Rattus norvegicus [23] = assay: Streptococcal cell wall-washed arthritis model in rats at 10.0 mg/kg peroral dose; assay type: functional; conditions: route oral
Rattus norvegicus [24] = assay: Percentage change in body weight of rats in streptococcal cell wall-washed arthritis model at 3.0 mg/kg peroral dose; assay type: functional; conditions: route oral
Rattus norvegicus [25] = assay: Inhibition of streptococcal cell wall-washed arthritis model in rats at 3.0 mg/kg peroral dose; assay type: functional; conditions: route oral
Canis familiaris [26] = assay: Emetic effect in dogs on intravenous dose (4/4); assay type: functional; conditions: Canis lupus familiaris
Canis familiaris [27] = assay: Emetic effect in dogs on intravenous dose (2/2); assay type: functional; conditions: Canis lupus familiaris

Row | SMILES | Ki (Phosphodiesterase 4 [2]) | IC50 (Phosphodiesterase 4 [3]) | inhibition in vivo at 50 mg/kg (Mus musculus [1]) | also measured
1 | Cc1cn(Cc2ccc(S(C)(=O)=O)cc2)c2cc(C(=O)Nc3c(Cl)c[n+]([O-])cc3Cl)ccc12 | 1124 nM | 260 nM | 38% | 
2 | Cc1cn(CCCc2ccccc2)c2cc(C(=O)Nc3c(Cl)c[n+]([O-])cc3Cl)ccc12 | 30 nM | 7 nM | 34% | 
3 | Cc1cn(Cc2ccc(C(=O)O)cc2)c2cc(C(=O)Nc3c(Cl)c[n+]([O-])cc3Cl)ccc12 | 3184 nM | 1400 nM |  | 
4 | Cc1cn(Cc2ccc3c(c2)OCO3)c2cc(C(=O)Nc3c(Cl)c[n+]([O-])cc3Cl)ccc12 | 86 nM | 24 nM | 40% | 
5 | Cc1cn(Cc2ccc(Cl)cc2)c2cc(C(=O)Nc3c(Cl)c[n+]([O-])cc3Cl)ccc12 | 71 nM | 12 nM | 10% | 
6 | Cc1noc(C)c1Cn1cc(C)c2ccc(C(=O)Nc3c(Cl)c[n+]([O-])cc3Cl)cc21 | 225 nM | 500 nM | 40% | 
7 | Cc1cn(CCCCc2ccccc2)c2cc(C(=O)Nc3c(Cl)c[n+]([O-])cc3Cl)ccc12 | 135 nM | 46 nM |  | inhibition in vivo at 10 mg/kg (Mus musculus [4]): 53%
8 | Cc1cn(CC2CCCCC2)c2cc(C(=O)Nc3c(Cl)cncc3Cl)ccc12 |  |  | 0% | 
9 | Cc1cn(Cc2ccccc2)c2cc(C(=O)Nc3c(Cl)cncc3Cl)ccc12 |  |  | 0% | 
10 | Cc1cn(Cc2nccn2Cc2ccccc2)c2cc(C(=O)Nc3c(Cl)c[n+]([O-])cc3Cl)ccc12 | 393 nM | 420 nM | 38% | 
11 | Cc1cn(Cc2ccc3ccccc3c2)c2cc(C(=O)Nc3c(Cl)c[n+]([O-])cc3Cl)ccc12 | 51 nM | 22 nM |  | 
12 | Cc1cn(Cc2ccc(C(F)(F)F)cc2)c2cc(C(=O)Nc3c(Cl)c[n+]([O-])cc3Cl)ccc12 | 67 nM | 14 nM |  | ED50 (Mus musculus [5]): 10 mg/kg
13 | COc1ccc(C(=O)Nc2c(Cl)cncc2Cl)cc1OC1CCCC1 |  |  |  | ED50 (Canis familiaris [26]): 0.6 mg/kg; ED50 (Mus musculus [5]): 3.1 mg/kg
14 | COc1ccc(C2CNC(=O)C2)cc1OC1CCCC1 (configuration not stated) [ROLIPRAM] |  |  |  | ED50 (Mus musculus [5]): 8.2 mg/kg; ED50 (Canis familiaris [27]): 0.03 mg/kg

More lines, main results first:

Row | Ki (Phosphodiesterase 4 [2]) | IC50 (Phosphodiesterase 4 [3]) | SMILES | inhibition in vivo at 50 mg/kg (Mus musculus [1]) | also measured
15 | 38 nM | 19 nM | Cc1cn(C2CCCCC2)c2cc(C(=O)Nc3c(Cl)c[n+]([O-])cc3Cl)ccc12 |  | 
16 | 30 nM | 20 nM | Cc1cn(CC2CCCCCC2)c2cc(C(=O)Nc3c(Cl)c[n+]([O-])cc3Cl)ccc12 |  | inhibition in vivo at 10 mg/kg (Mus musculus [4]): 8%
17 | 12 nM | 4.1 nM | Cc1cn(CCC2CCCCC2)c2cc(C(=O)Nc3c(Cl)c[n+]([O-])cc3Cl)ccc12 |  | ED50 (Mus musculus [5]): 7.4 mg/kg; ED50 (Canis familiaris [6]): 1 mg/kg
18 | 60 nM | 8 nM | Cc1cn(Cc2ccccc2)c2cc(C(=O)Nc3c(Cl)c[n+]([O-])cc3Cl)ccc12 |  | ED50 (Canis familiaris [7]): 3 mg/kg; Tmax [8]: 15 min; half-life [9]: 222 min; AUC [10]: 669 ng·h/mL; clearance [11]: 8.33 mL/min/kg; AUC [12]: 2020 ng·h/mL; bioavailability [13]: 33%; ED50 (Mus musculus [5]): 20 mg/kg; Cmax [14]: 393 ng/mL; half-life [15]: 306 min; Vd [16]: 0.9 L/kg
19 | 116 nM | 38 nM | Cc1cn(CC(C)C)c2cc(C(=O)Nc3c(Cl)c[n+]([O-])cc3Cl)ccc12 |  | inhibition in vivo at 10 mg/kg (Mus musculus [4]): 0%
20 | 86 nM | 30 nM | Cc1cn(CC2CCCCC2)c2cc(C(=O)Nc3c(Cl)c[n+]([O-])cc3Cl)ccc12 |  | Change (Rattus norvegicus [17]): -7%; Mean AUC (Rattus norvegicus [18]): 3.7; ED50 (Canis familiaris [7]): > 0.8 mg/kg; inhibition in vivo at 10 mg/kg (Rattus norvegicus [19]): 33%; Tmax [8]: 60 min; half-life [9]: 150 min; AUC [10]: 3140 ng·h/mL; clearance [11]: 5 mL/min/kg; AUC [12]: 3260 ng·h/mL; bioavailability [13]: 96%; Mean AUC (Rattus norvegicus [20]): 1.1; ED50 (Mus musculus [5]): 7.1 mg/kg; Cmax [14]: 439 ng/mL; inhibition in vivo at 30 mg/kg (Rattus norvegicus [21]): 77%; Change (Rattus norvegicus [22]): -13%; Mean AUC (Rattus norvegicus [23]): 3.3; Change (Rattus norvegicus [24]): -5%; half-life [15]: 216 min; Vd [16]: 1.7 L/kg; inhibition in vivo at 3 mg/kg (Rattus norvegicus [25]): 25%
21 | 64 nM | 80 nM | Cc1nc(Cn2cc(C)c3ccc(C(=O)Nc4c(Cl)c[n+]([O-])cc4Cl)cc32)cs1 | 52% | 
22 | 67 nM | 16 nM | Cc1cn(CCCC2CCCCC2)c2cc(C(=O)Nc3c(Cl)c[n+]([O-])cc3Cl)ccc12 | 47% | 
